Consider eleven compounds from patent publication US6875759B1, “Substituted guanidines and the use thereof” (Kadmus Pharmaceuticals, priority 1999, dated 2005).

Data set [1] deals with hormone-independent prostate cancer cell line DU145. Kind of data set: In vitro cytotoxicity, MTS (CellTiter 96 Aqueous Proliferation Assay), prostate cancer cells. The data set is classed as cell-based, human. The settings on record: 7 days exposure, MTS, dose causing death to 50% of cells, read-out: Cell Survival ED 50 Prostate. As for the experimental part: FIG. 1 is a graph which compares the effects of the compound of Example 8 on normal human endothelial cells (AH-9) and human prostate cancer cells (DU145). Cells were exposed to the compound for seven days at the concentrations indicated. Cytotoxicity was assessed using the MTS assay.
(§1) In these experiments, cells were seeded at 400 cells per well 24 hours prior to addition of the test compound. Cells were grown at 37° C. in a humidified atmosphere of 95% air, 5% CO2 for 7 days with daily media changes. Cytotoxicity was assessed using the CellTiter 96 Aqueous Proliferation Assay (Promega, Madison, Wis.).
In a separate experiment (FIG. 1), normal human endothelial cells (AH-9) and human prostate cancer cells (DU145) were exposed to increasing concentrations of the compound of Example 8 for seven days.

For data set [2], the system named is pancreas cancer cell line HS766T. Kind of data set: In vitro cytotoxicity, MTS assay, pancreas cancer cells. The data set is classed as cell-based, human. The conditions noted are these: Homo sapiens, 168 h, 7 days exposure, dose causing death to 50% of cells, read-out: Cell Survival ED 50 Pancreas. On the procedure:
as §1
A general note: Tetrazolium assays rely on reduction of a dye to a coloured formazan, in cell work by metabolically active cells.

Data set [3] deals with breast cancer cell line HS578T. Kind of data set: In vitro cytotoxicity, MTS assay, breast cancer cells. In kind it is cell-based, human. The conditions noted are these: 7 days exposure, dose causing death to 50% of cells, read-out: Cell Survival ED 50 Breast. As for the experimental part:
as §1

Data set [4] can be described thus: Mouse formalin test pain model, late phase. The data set is classed as in vivo. On the procedure: The formalin test was conducted using standard procedures (Hunskaar et al., J. Neurosci. Meth. 14:69-76 (1985). Mice (male CF-1, 20-25 g) were placed in Plexiglass jars for at least 1 hr to accommodate to the environment
The animals received either test drug at 5-50 mg/kg p.o. or the appropriate volume of vehicle (normal saline). Thirty minutes after p.o. dosing mice were injected with formalin (20 μl of 2.5% formaldehyde solution in saline) into the dorsal surface of the right hind paw.
All experiments were done in a blinded manner. The late phase of the formalin response was measured as licking/biting from 10-50 minutes after formalin injection. Differences between groups were analyzed by one-way analysis of variance (ANOVA), A P value ≦0.05 was considered significant. Reduction in the time spent licking/biting in the late phase of the formalin response is considered an indication of a reduction in chronic pain.

pEC50: −log10 of the molar value. Where two headings read alike, the source gives them in different places.

Take `CC[C@]1(O)C[C@@H]2CN(CCc3c([nH]c4ccccc34)[C@@](C(=O)OC)(c3cc4c(cc3OC)N(C)[C@H]3[C@@](O)(C(=O)OC)[C@H](OC(C)=O)[C@]5(CC)C=CCN6CC[C@]43[C@@H]65)C2)C1` [Vinblastine, vinblastine, reference compound]: the pEC50 in data set [1] (Homo sapiens, DU-145, 168 h) is 5.40; in data set [2], 6.70; in data set [3] (Homo sapiens, Hs-578T, 168 h), 5.92.
For the compound `Cc1ccc(N=C(Nc2ccc(C)cc2)N2CCOCCOCCN(C(=Nc3ccc(C)cc3)Nc3ccc(C)cc3)CCOCCOCC2)cc1` [Example 16, 7,16-Di-[(N,N′-Di-p-tolyl)amidino]-1,4,10,13-tetraoxa-7,16-diazacyclooctadecane], the pEC50 in data set [1] (Homo sapiens, DU-145, 168 h) was 6.00; in data set [3] (Homo sapiens, Hs-578T, 168 h), 6.22.
As for `COc1cccc2c1C(=O)c1c(O)c3c(c(O)c1C2=O)C[C@@](O)(C(=O)CO)C[C@@H]3O[C@H]1C[C@H](N)[C@H](O)[C@H](C)O1` [Doxorubicin, doxorubicin, reference compound], the pEC50 in data set [1] (Homo sapiens, DU-145, 168 h) was 5.15; in data set [2] it was 6.52; in data set [3] (Homo sapiens, Hs-578T, 168 h), 5.70.
For the compound `Cc1ccc(NC(=N)N(CCCCN(C(=N)Nc2ccc(C)cc2)c2ccc(C)cc2)c2ccc(C)cc2)cc1` [Example 5, 1,4-Di-[(N,N′-di-p-tolyl)guanidinyl]butane], the pEC50 in data set [1] (Homo sapiens, DU-145, 168 h) was 6.15; in data set [3] (Homo sapiens, Hs-578T, 168 h), 6.52.
For `C[C@]12CC[C@@H]3c4ccc(OC(=O)N(CCCl)CCCl)cc4CC[C@H]3[C@@H]1CC[C@@H]2O` [Estramustine, reference compound], the pEC50 in data set [1] (Homo sapiens, DU-145, 168 h) was 4.96.
As to `Cc1ccc(NC(=N)N(CCN(C(=N)Nc2ccc(C)cc2)c2ccc(C)cc2)c2ccc(C)cc2)cc1` [Example 21, 1,2-Di-[(N,N′-di-p-tolyl)guanidinyl]ethane], in data set [4] (30 mg/kg orally), the “late phase pain versus control vehicle (post-hoc Newman-Kuels test)” value is “significant at P<0.05”. The “effect on general behavior of the animals” value in data set [4] (at the doses effective in the formalin test, p.o.) is recorded as “did not affect the general behavior”. Moreover, the “time spent licking, late phase of formalin response (in words)” value in data set [4] (oral administration, 5-50 mg/kg, male CF-1 mice) is given as “dose-dependent reduction in the time spent licking”.
As to `Cc1ccc(NC(=N)N(CCCCN)c2ccc(C)cc2)cc1` [Example 4, 1-Amino-4-[(N,N′-di-p-tolyl)guanidinyl]butane], the pEC50 was 5.60 in data set [1] (Homo sapiens, DU-145, 168 h); 6.70 in data set [2]; 5.77 in data set [3] (Homo sapiens, Hs-578T, 168 h).
For the compound `Cc1ccc(NC(=NCCCOCCCCOCCCN=C(Nc2ccc(C)cc2)Nc2ccc(C)cc2)Nc2ccc(C)cc2)cc1` [Example 15], the pEC50 in data set [1] is 5.60; in data set [3] it was 6.05.
For the compound `COc1cc([C@@H]2c3cc4c(cc3[C@@H](O[C@@H]3O[C@@H]5CO[C@@H](C)O[C@H]5[C@H](O)[C@H]3O)[C@H]3COC(=O)[C@H]23)OCO4)cc(OC)c1O` [Etoposide, etoposide, reference compound], the pEC50 in data set [1] (Homo sapiens, DU-145, 168 h) was 6.22; in data set [2], 5.70; in data set [3] (Homo sapiens, Hs-578T, 168 h), 6.40.
On to `Cc1ccc(NC(=N)N(CCc2c[nH]c3ccccc23)c2ccc(C)cc2)cc1` [Example 9, 1-[(N,N′-di-p-tolyl)guanidinyl]-2-(3-indolyl)ethane], for which the pEC50 in data set [1] (Homo sapiens, DU-145, 168 h) is 5.29; in data set [2], 6.30; in data set [3] (Homo sapiens, Hs-578T, 168 h), 5.38.
Take `Cc1ccc(N(c2ccc(C)cc2)N2CCC(C#N)(c3ccccc3)CC2)cc1` [Example 14, 4-Cyano-1-[(N,N′-di-p-tolyl)amino]-4-phenylpiperidine]: the pEC50 in data set [1] (Homo sapiens, DU-145, 168 h) is 4.97; in data set [3] (Homo sapiens, Hs-578T, 168 h) it was 5.34.
